Where two headings read alike, the source gives them in different places.
Legend:
[1] = molecular target: T1, McrBC (Escherichia coli, UniProt P15005); assay: McrBC cleavage of pBR322.AluI with titration of nucleotides; assay type: biochemical; conditions: for inhibition of McrBC reaction: in the presence of GTP (0.5 mM), analogue 5.0 to 0.04 mM; for support of cleavage of the substrate by nucleotide: nucleotides tested at 1 mM
T1 construct: made in house; host or cells: Escherichia coli BL21(DE3)/pER273 (McrBL) and BL21(DE3)/pER276 (McrC)
T1 sequence (P15005 1-459): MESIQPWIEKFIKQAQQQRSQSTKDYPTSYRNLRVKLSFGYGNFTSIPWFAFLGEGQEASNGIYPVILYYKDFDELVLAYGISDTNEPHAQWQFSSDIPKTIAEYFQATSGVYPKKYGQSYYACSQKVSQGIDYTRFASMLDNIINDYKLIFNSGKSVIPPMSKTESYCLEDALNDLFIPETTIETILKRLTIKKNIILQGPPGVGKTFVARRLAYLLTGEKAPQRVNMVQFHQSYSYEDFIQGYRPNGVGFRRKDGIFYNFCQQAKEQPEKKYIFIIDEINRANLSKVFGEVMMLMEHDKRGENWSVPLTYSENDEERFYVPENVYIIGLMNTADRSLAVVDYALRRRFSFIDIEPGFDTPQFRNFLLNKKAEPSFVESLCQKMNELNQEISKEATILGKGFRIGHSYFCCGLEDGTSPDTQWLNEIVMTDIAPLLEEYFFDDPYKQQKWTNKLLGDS
Experimental: The optimal buffer composition for both components of McrBC tested was 10 mM Tris-Cl, 10 mM magnesium chloride, 1 mM GTP (pH 7.5 at 25° C.).
McrBC activity depends on the presence of GTP. […] McrBL Fraction IV and McrC Fraction Va (EXAMPLE I), were used, such that each reaction in each series contained 8 pmol McrBL, 8 pmol of McrC (combined activity on the same day of 5 units) and 0.07 pmol of pBR322.AluI in the presence of decreasing concentrations of nucleotides. Mixtures were made up without McrBL and without nucleotide; nucleotide was added to the first tube in the series; the samples were serially diluted in a manner similar to that described in EXAMPLE I and II; and reactions were begun by addition of McrBL and transfer to 37° C.

[2] = Properties of the McrBC cleavage reaction (pH, ratio of components); assay type: biochemical; conditions: higher or lower ratios reduce cleavage activity
Text: (a) pH optimum: Activity is detectable when the pH of the reaction is lowered to about 5.8.
Higher or lower ratios reduce cleavage activity.

[3] = test system: McrBC (chromosomal wild-type operon) (Escherichia coli K-12); assay: cell_activity; conditions: methylated by M.HaeII in vivo; in vivo restriction; abolished by McrBS plasmid
[4] = pH 7.5, read-out: relative activity

With Nc1ncnc2c1ncn2[C@@H]1O[C@H](COP(=O)(O)OP(=O)(O)NP(=O)(O)O)[C@@H](O)[C@H]1O [AMP-PNP] the “inhibition of McrBC reaction” value [1] was “did not inhibit McrBC” and the “inhibition of McrBC at high concentrations” value ([1]; near 10 mM) was “partial inhibition”.

For Nc1ncnc2c1ncn2[C@@H]1O[C@H](COP(=O)(O)OP(=O)(O)OP(O)(O)=S)[C@@H](O)[C@H]1O [ATP-gamma-S], the “inhibition of McrBC reaction” value [1] was “did not inhibit the enzyme”.

With Nc1ncnc2c1ncn2[C@@H]1O[C@H](COP(=O)(O)OP(=O)(O)OP(=O)(O)O)[C@@H](O)[C@H]1O [ATP] the “concentration at which inhibition of McrBC activity began” value ([1]; 0.5 mM GTP (equimolar)) was 0.5 mM, the “inhibition of McrBC reaction” value [1] was “inhibited the reaction” and the activity at 620 µM [1, 4] was 25%. It also gave an activity at 1250 µM [1, 4] of under 10% and an activity at 2500 µM [1, 4] of under 1%.

For Nc1nc2c(ncn2[C@@H]2O[C@H](COP(=O)(O)OP(=O)(O)O)[C@@H](O)[C@H]2O)c(=O)[nH]1 [GDP], the “support of cleavage of the substrate by nucleotide” value [1] was “Neither GDP or GMP supported cleavage”.

With Nc1nc2c(ncn2[C@@H]2O[C@H](COP(=O)(O)OP(=O)(O)NP(=O)(O)O)[C@@H](O)[C@H]2O)c(=O)[nH]1 [GMP-PNP] the “inhibition of the GTP-supported reaction” value ([1]; 5 mM analogue, 0.5 mM GTP) was “partial inhibition”, the activity at 1250 µM ([1]; pH 7.5, 0.5 mM GTP and 1.25 mM GMP-PNP, read-out: relative activity) was 50% and the activity at 5000 µM ([1]; pH 7.5, 0.5 mM GTP and 5 mM GMP-PNP, read-out: relative activity) was under 10%.

With Nc1nc2c(ncn2[C@@H]2O[C@H](COP(=O)(O)O)[C@@H](O)[C@H]2O)c(=O)[nH]1 [GMP] the “support of cleavage of the substrate by nucleotide” value [1] was “Neither GDP or GMP supported cleavage”.

With Nc1nc2c(ncn2[C@@H]2O[C@H](COP(=O)(O)OP(=O)(O)OP(O)(O)=S)[C@@H](O)[C@H]2O)c(=O)[nH]1 [GTP-gamma-S] the relative activity ([1]; 0.5 mM GTP and as little as 0.04 mM GTP-gamma-S) was “no activity was detectable” and the “inhibition of McrBC reaction” value [1] was “completely inhibit”.

For Nc1nc2c(ncn2[C@@H]2O[C@H](COP(=O)(O)OP(=O)(O)OP(=O)(O)O)[C@@H](O)[C@H]2O)c(=O)[nH]1 [GTP], the activity at 620 µM ([1]; 0.62 mM GTP, 10 mM Tris-Cl, 10 mM magnesium chloride, pH 7.5, read-out: relative activity) was 100%, the “support of the reaction by GTP alone” value ([1]; 2.5 mM GTP) was “supported the reaction normally” and the “effect of high levels of GTP on the enzyme” value ([1]; 5 mM GTP) was “inhibit the enzyme”. The “GTP concentration at which cleavage can be detected” value ([1]; lane h, lowest concentration) was 40 nM, the activity at 40 µM ([1]; pH 7.5, 0.04 mM GTP, same buffer, read-out: relative activity) was at most 10% and the activity at 310 µM ([1]; pH 7.5, 0.31 mM GTP, same buffer, read-out: relative activity) was 50%.

In the case of “McrB: large polypeptide product of the mcrB gene, component of McrBC”, the “Optimal ratio of McrB to McrC” value [2] is reported as “between one and ten molecules of McrB per molecule of McrC”.

Work on phage lambda modified by M.HaeII yielded an activity (fold reduction in plaques) [3] of 33.

B1: McrC: component of McrBC endonuclease, product of the mcrC gene (protein, UniProt P15006 1-348, looked up)
Type IV methyl-directed …: MEQPVIPVRNIYYMLTYAWGYLQEIKQANLEAIPGNNLLDILGYVLNKGVLQLSRRGLELDYNPNTEIIPGIKGRIEFAKTIRGFHLNHGKTVSTFDMLNEDTLANRIIKSTLAILIKHEKLNSTIRDEARSLYRKLPGISTLHLTPQHFSYLNGGKNTRYYKFVISVCKFIVNNSIPGQNKGHYRFYDFERNEKEMSLLYQKFLYEFCRRELTSANTTRSYLKWDASSISDQSLNLLPRMETDITIRSSEKILIVDAKYYKSIFSRRMGTEKFHSQNLYQLMNYLWSLKPENGENIGGLLIYPHVDTAVKHRYKINGFDIGLCTVNLGQEWPCIHQELLDIFDEYLK
In the case of B1, the “Optimal ratio of McrC to sites” value [2] is reported as “between one and six molecules of McrC per cleavable site”.
